How the values were obtained:
Meth A fibrosarcoma = experiment: Pharmacological Test 1 (anti-cancer activity): tumor weight ratio T/C of subcutaneously transplanted tumor; type: in vivo, mice; conditions: Mus musculus, 336 h
Protocol: (§1) Female CDF₁ mice of 6 weeks old were used. As the tumor, Meth A fibrosarcoma was used.
(§2) To the right abdomen of each mouse, 2 x 10⁶ tumor cells were subcutaneously transplanted. On the next day (day 1), the mice were randomly grouped and the suspension was compulsively administered to the mice by using an oral sound for successive 7 days (day 1 - day 7).
On day 14, the tumors were removed and weighed. The tumor growth ratio (%) was calculated according to the following equation: Tumor Growth Ratio (%) = T/C x 100 [formula] wherein T means the average weight of tumor of the treated group and C means the average weight of tumor of the control group.

[1] = Pharmacological Test 1: body weight change of the tumor-bearing mice; conditions: day 1 - day 7, female CDF1 mice with Meth A fibrosarcoma
Description: as §1, §2

L1210 leukemia = conditions: experimental model tumor; Cancer Research, Vol. 24, p.1979, 1964; cited from earlier work
adenocarcinoma-755 = conditions: experimental model tumor; Cancer Research, Vol. 24, p.1979, 1964; cited from earlier work
[2] = cited from earlier work
[3] = po, read-out: Tumor Weight Ratio (T/C : %)

C#CCO[C@H]1C[C@H](n2cc(C(F)(F)F)c(=O)[nH]c2=O)O[C@@H]1CO[Si](C)(C)C(C)(C)C [Example 1, 5'-O-(t-butyldimethylsilyl)-3'-O-propargyl-α,α,α-trifluorothymidine]
response vs control in vivo at 13.4 mg/kg (Meth A fibrosarcoma; [3]): 67%
response vs control in vivo at 53.7 mg/kg (Meth A fibrosarcoma; [3]): 33%
Body Weight Change ([1]; 13.4 mg/kg oral): -0.3 g
Body Weight Change ([1]; 53.7 mg/kg oral): -4.9 g

C#CCO[C@H]1C[C@H](n2cc(C(F)(F)F)c(=O)[nH]c2=O)O[C@@H]1CO [Example 2, 3'-O-propargyl-α,α,α-trifluorothymidine]
response vs control in vivo at 17.3 mg/kg (Meth A fibrosarcoma; 17.3 mg/kg oral, day 1 - day 7, tumors weighed on day 14): 16.6%
response vs control in vivo at 51.9 mg/kg (Meth A fibrosarcoma; 51.9 mg/kg oral, day 1 - day 7, tumors weighed on day 14): 7.7%
Body Weight Change ([1]; 17.3 mg/kg oral): -0.5 g
Body Weight Change ([1]; 51.9 mg/kg oral): -4.9 g

C#CCO[C@H]1C[C@H](n2cc(C(F)(F)F)c(=O)n(C(=O)c3ccccc3)c2=O)O[C@@H]1CO [Example 6, 3-benzoyl-3'-O-propargyl-α,α,α-trifluorothymidine]
response vs control in vivo at 22.7 mg/kg (Meth A fibrosarcoma; 22.7 mg/kg oral, day 1 - day 7, tumors weighed on day 14): 28.3%
response vs control in vivo at 68.1 mg/kg (Meth A fibrosarcoma; 68.1 mg/kg oral, day 1 - day 7, tumors weighed on day 14): 2.6%
Body Weight Change ([1]; 22.7 mg/kg oral): -3.8 g
Body Weight Change ([1]; 68.1 mg/kg oral): -4.7 g

C#CCO[C@H]1C[C@H](n2cc(C(F)(F)F)c(=O)[nH]c2=O)O[C@@H]1CO[Si](C)(C)C(C)C [Example 7, 5'-O-isopropyldimethylsilyl-3'-O-propargyl-α,α,α-trifluorothymidine]
response vs control in vivo at 26 mg/kg (Meth A fibrosarcoma; [3]): 38%
response vs control in vivo at 52 mg/kg (Meth A fibrosarcoma; [3]): 25%
Body Weight Change ([1]; 26.0 mg/kg oral): -0.2 g
Body Weight Change ([1]; 52.0 mg/kg oral): -4.0 g

C#CCO[C@H]1C[C@H](n2cc(C(F)(F)F)c(=O)[nH]c2=O)O[C@@H]1COC(=O)CN1CCN(CCCCCCCCC)CC1.Cl.Cl [Example 11, 5'-O-{2-(4-nonylpiperazin-1-yl)acetyl}-3'-O-propargyl-α,α,α-trifluorothymidine dihydrochloride]
response vs control in vivo at 37 mg/kg (Meth A fibrosarcoma; 37.0 mg/kg oral, day 1 - day 7, tumors weighed on day 14): 58%
response vs control in vivo at 75 mg/kg (Meth A fibrosarcoma; 75.0 mg/kg oral, day 1 - day 7, tumors weighed on day 14): 31%
Body Weight Change ([1]; 37.0 mg/kg oral): 0.6 g
Body Weight Change ([1]; 75.0 mg/kg oral): -2.7 g

C#CCO[C@H]1C[C@H](n2cc(C(F)(F)F)c(=O)[nH]c2=O)O[C@@H]1CO[Si](CC)(CC)CC [Example 13, 5'-O-(triethylsilyl)-3'-O-propargyl-α,α,α-trifluorothymidine]
response vs control in vivo at 27 mg/kg (Meth A fibrosarcoma; [3]): 57%
response vs control in vivo at 54 mg/kg (Meth A fibrosarcoma; [3]): 37%
Body Weight Change ([1]; 27.0 mg/kg oral): 0.8 g
Body Weight Change ([1]; 54.0 mg/kg oral): -2.9 g

C#CCO[C@H]1C[C@H](n2cc(C(F)(F)F)c(=O)[nH]c2=O)O[C@@H]1COC(=O)[C@@H]1CCCN1CCCCCCCCCCCC.Cl [Example 14, 5'-O-(N-dodecyl-L-prolyl)-3'-O-propargyl-α,α,α-trifluorothymidine hydrochloride]
response vs control in vivo at 38 mg/kg (Meth A fibrosarcoma; 38.0 mg/kg oral, day 1 - day 7, tumors weighed on day 14): 32%
response vs control in vivo at 76 mg/kg (Meth A fibrosarcoma; 76.0 mg/kg oral, day 1 - day 7, tumors weighed on day 14): 15%
Body Weight Change ([1]; 38.0 mg/kg oral): -0.2 g
Body Weight Change ([1]; 76.0 mg/kg oral): -4.7 g

C#CCO[C@H]1C[C@H](n2cc(C(F)(F)F)c(=O)[nH]c2=O)O[C@@H]1COC(=O)CCCCCCCCCCCCCCCCC [Example 29]
response vs control in vivo at 18 mg/kg (Meth A fibrosarcoma; 18.0 mg/kg oral, day 1 - day 7, tumors weighed on day 14): 52%
response vs control in vivo at 71.9 mg/kg (Meth A fibrosarcoma; 71.9 mg/kg oral, day 1 - day 7, tumors weighed on day 14): 21%
Body Weight Change ([1]; 18.0 mg/kg oral): -1.2 g
Body Weight Change ([1]; 71.9 mg/kg oral): -6.9 g

C#CCO[C@H]1C[C@H](n2cc(C(F)(F)F)c(=O)n(C(=O)c3ccc(OC)cc3)c2=O)O[C@@H]1CO [Example 45]
response vs control in vivo at 28 mg/kg (Meth A fibrosarcoma; 28.0 mg/kg oral, day 1 - day 7, tumors weighed on day 14): 64.6%
response vs control in vivo at 84.1 mg/kg (Meth A fibrosarcoma; 84.1 mg/kg oral, day 1 - day 7, tumors weighed on day 14): 6.9%
Body Weight Change ([1]; 28.0 mg/kg oral): 1.3 g
Body Weight Change ([1]; 84.1 mg/kg oral): -4.5 g

C#CCO[C@H]1C[C@H](n2cc(C(F)(F)F)c(=O)n(C(=O)c3ccco3)c2=O)O[C@@H]1CO [Example 47]
response vs control in vivo at 25.6 mg/kg (Meth A fibrosarcoma; 25.6 mg/kg oral, day 1 - day 7, tumors weighed on day 14): 90.3%
response vs control in vivo at 76.9 mg/kg (Meth A fibrosarcoma; 76.9 mg/kg oral, day 1 - day 7, tumors weighed on day 14): 21.7%
Body Weight Change ([1]; 25.6 mg/kg oral): 0.7 g
Body Weight Change ([1]; 76.9 mg/kg oral): -4.4 g

O=c1[nH]c(=O)n([C@H]2C[C@H](O)[C@@H](CO)O2)cc1C(F)(F)F [Example F3Thd, Trifluorothymidine]
anti-tumor activity (L1210 leukemia): excellent anti-tumor activity
anti-tumor activity (adenocarcinoma-755): excellent anti-tumor activity
metabolism in the body ([2]; in vivo): rapidly metabolized in the body
absorption when administered orally ([2]; oral administration): not well absorbed when administered orally
